Data taken from the NIST ThermoML archive (doi:10.1021/je020220n).
“And” between values parts separate entries of the source, which are not always exact repeats. Identical values can stand only once.

Settings: Crystal

[I][Er]([I])[I] [erbium iodide]
Settings	vapor or sublimation pressure
871 K	5.37e-05 kPa
873 K	5.37e-05 kPa
876 K	8.51e-05 kPa
884 K	0.0001072 kPa
886 K	7.94e-05 kPa and 0.0001047 kPa and 5.75e-05 kPa
889 K	9.33e-05 kPa
890 K	0.0001047 kPa
891 K	0.0001479 kPa
897 K	0.0001349 kPa
898 K	0.0001349 kPa and 0.0001905 kPa
903 K	0.0001622 kPa and 0.0002089 kPa
904 K	0.0002344 kPa and 0.0002089 kPa
906 K	0.0001995 kPa
907 K	0.0001288 kPa
912 K	0.0002138 kPa and 0.0003162 kPa
913 K	0.0002692 kPa and 0.000302 kPa
915 K	0.0002344 kPa
916 K	0.0001738 kPa
918 K	0.0002951 kPa and 0.0004074 kPa
923 K	0.0004169 kPa
924 K	0.0005129 kPa and 0.0003388 kPa
928 K	0.0002754 kPa
929 K	0.0003715 kPa
930 K	0.000631 kPa and 0.000537 kPa and 0.0005754 kPa
932 K	0.0004169 kPa
934 K	0.0002884 kPa
936 K	0.0006166 kPa and 0.0008318 kPa
937 K	0.0003631 kPa
939 K	0.0007586 kPa
940 K	0.0005623 kPa and 0.000537 kPa and 0.0007586 kPa
943 K	0.001071 kPa
945 K	0.0004786 kPa
946 K	0.0005129 kPa
947 K	0.0007413 kPa
948 K	0.000955 kPa
949 K	0.001349 kPa and 0.001023 kPa and 0.001047 kPa
950 K	0.0007762 kPa
952 K	0.000537 kPa
955 K	0.0006457 kPa
956 K	0.001698 kPa
957 K	0.0009772 kPa
958 K	0.001445 kPa
959 K	0.00123 kPa
961 K	0.0007413 kPa
962 K	0.001698 kPa
963 K	0.001698 kPa and 0.001202 kPa and 0.0008913 kPa
966 K	0.00195 kPa and 0.001023 kPa
968 K	0.00257 kPa
969 K	0.001514 kPa
971 K	0.001906 kPa
972 K	0.00123 kPa
973 K	0.002455 kPa
974 K	0.003162 kPa and 0.00257 kPa and 0.001175 kPa
976 K	0.002042 kPa
978 K	0.002884 kPa
979 K	0.002951 kPa
980 K	0.003802 kPa and 0.001622 kPa
981 K	0.001778 kPa
982 K	0.002512 kPa
983 K	0.003388 kPa
984 K	0.003548 kPa
986 K	0.003236 kPa
987 K	0.00182 kPa
988 K	0.002089 kPa
989 K	0.004266 kPa
990 K	0.003236 kPa
992 K	0.004266 kPa and 0.004467 kPa
994 K	0.004786 kPa
995 K	0.002951 kPa
996 K	0.002754 kPa
997 K	0.004169 kPa
999 K	0.004786 kPa and 0.005754 kPa
1001 K	0.00631 kPa and 0.002884 kPa
1004 K	0.006457 kPa and 0.005129 kPa
1006 K	0.006918 kPa
1007 K	0.007079 kPa
1008 K	0.004677 kPa and 0.00389 kPa
1010 K	0.007943 kPa
1011 K	0.008318 kPa
1012 K	0.006761 kPa
1015 K	0.004571 kPa
1016 K	0.005129 kPa
1017 K	0.01 kPa
1018 K	0.008128 kPa
1019 K	0.01047 kPa
1026 K	0.01318 kPa
1030 K	0.006918 kPa
1036 K	0.01778 kPa
1045 K	0.01023 kPa
1046 K	0.02455 kPa
1059 K	0.03548 kPa
1070 K	0.04898 kPa
1082 K	0.06918 kPa
